In US10966995B2, “Use of secoisolariciresinol diglucosides (SDGS) and related compounds for protection against radiation and chemical damage” (THE TRUSTEES OF THE UNIVERSITY OF PENNSYLVANIA, priority 2014, dated 2021):

Assays:
[1] = tested on: calf thymus DNA; test: Radiation-induced calf thymus DNA fragmentation assay; format: biochemical; conditions: 50 Gy
Description: Plasmid DNA (pBR322) or calf thymus DNA samples with or without varying concentrations of SDG (R,R), SDG (S,S) and SDG (commercial) were exposed to γ-radiation with a Mark 1 cesium (Cs-137) irradiator (J. L. Shepherd, San Fernando, Calif.) at a dose rate of 1.7 Gy/min in phosphate buffered saline, pH 7.4 (PBS).
The effect of test compounds on radiation-induced strand breaks in DNA was determined using calf thymus DNA (Sigma, St. Louis, Mo.). DNA (500 ng) in PBS (pH 7.4) was mixed with varying concentrations (25-250 μM) of SDG (R,R), SDG (S,S) and SDG (commercial) and irradiated at 50 Gy for 30 min. A second series of experiments were performed at varying concentrations ranging from 0.5-10 μM. Samples were mixed with loading dye and subjected to agarose (1%) gel electrophoresis in TAE buffer (pH, 8.3) at 100 V. The gel was stained with ethidium bromide (0.5 μg/ml) for 40 min, washed for 20 min and then visualized on a UV trans-illuminator (Bio-Rad, Hercules, Calif.). The captured gel images were scanned and the density of the calf thymus DNA fragments was determined by Gel-Pro image analyzer program (Media Cybernetics, Silver Spring, Md.). The density of the low mol. wt (<6,000 bps) and the high mol. wt (>6,000 bps) fragments of calf thymus DNA was expressed as % of the total density (low mol wt.+high mol. wt.).

[2] = tested on: murine primary lung fibroblasts; test: γ-H2AX foci immunostaining, fibroblasts; format: cell-based, mouse; conditions: SDG 50 μM 6 h prior IR; 2 Gy; irradiated control 30.0% at 30 min
Description: (§1) Fibroblasts and endothelial cells were isolated from C57/bl6 mouse. For fibroblast isolation, mouse lungs were harvested, minced, and incubated with dispase (2 mg/ml) for 45 minutes. Pieces were plated out and fibroblasts were cultured as described previously and used between passages 3 and 10. Pulmonary microvascular endothelial cells (PMVEC) were isolated from murine lungs as described previously. Briefly, freshly harvested mouse lungs were treated with collagenase followed by isolation of cells by adherence to magnetic beads coated with mAb to platelet endothelial cell adhesion molecule (PECAM). Epithelial cells (C10) cells were originally derived from a normal BALB/c mouse lung explant and are non-tumorigenic, contact-inhibited, and have alveolar type 2 cell features at early passage.
For immunostaining of γ-H2AX, cells were plated on glass coverslips (5,000 cells/coverslip), pre-treated (6 h) with 50 μM SDG and irradiated (2 Gy). At desired time interval, cells were fixed (4% para-formaldehyde), washed and blocked with PBST (PBS+0.1% TritonX-100 containing 5% goat serum, 1% BSA). Cells were incubated with γ-H2AX primary antibody (1:200) overnight at 4° C. followed by washing with PBST (3×5 min) and incubation with secondary antibody (Alexa Fluor® 488, Invitrogen, Calif., USA) for 1 hr at RT. Nuclei were counterstained with DAPI and visualized under fluorescence microscope.

[3] = tested on: murine primary lung epithelial cells; test: Morphological detection of apoptotic cells, epithelial cells; format: cell-based, mouse; conditions: SDG 50 μM pre-treatment; irradiated; 24 h; IR alone 13.9%
Description: as §1, with “Epithelial cells (C10) cells were originally derived from a normal BALB/c mouse lung explant and are non-tumorigenic, contact-inhibited, and have alveolar type 2 cell features at early passage.” left out
(§2) Apoptotic cells are morphologically characterized by condensation of nucleus and cytoplasm, membrane blebbing, cell shrinkage, and breakdown of nuclear DNA, first in large segments and subsequently in nucleosomal fragments and finally formation of well-enclosed apoptotic bodies. Percentage of cells undergoing apoptosis was determined microscopically from the slides used for micronuclei detection (cytogenetic damage). At least, 500 cells were counted for each experiment (experiment done twice) and percent apoptotic cells were determined as follows: % Cell Death=Na/Nt×100, where Na is the number of cells with apoptotic bodies and Nt is the total number of cells analyzed. Gene Expression Analysis by Quantitative Real Time PCR (qPCR)

[4] = tested on: murine primary lung fibroblasts; test: Morphological detection of apoptotic cells, fibroblasts; format: cell-based, mouse; conditions: SDG pre-treatment; irradiated
Description: as §1, with “Epithelial cells (C10) cells were originally derived from a normal BALB/c mouse lung explant and are non-tumorigenic, contact-inhibited, and have alveolar type 2 cell features at early passage.” left out
as §2

[5] = Hypochlorite-induced chlorination of 2-aminopurine (2-AP)
Excerpt: 2-AP in PBS was exposed to hypochlorite and fluorescence spectra recorded between 360-390 nm with the emission maximum at 374 nm. The % change in 2-AP calculated.

[6] = tested on: human epithelial cells (A549); test: BaP-induced oxidative DNA damage (8-oxo-dGuo, mass spectrometry); format: cell-based; conditions: SDG 10 μM; 25 μM BaP; 3 and 6 hours post carcinogen exposure
[7] = Tolerability of SDG given twice daily for 7 days; format: in vivo; conditions: 100 mg/Kg given twice daily for 7 days

## COc1cc(C[C@@H](CO[C@@H]2O[C@H](CO)[C@@H](O)[C@H](O)[C@H]2O)[C@H](CO[C@@H]2O[C@H](CO)[C@@H](O)[C@H](O)[C@H]2O)Cc2ccc(O)c(OC)c2)ccc1O [SDG, secoisolariciresinol diglucoside]
[1]
  Concentration at which maximum radioprotection of genomic DNA is achieved: approximately 5.0 μM
[1]; 10 μM of each agent
  Radioprotective properties of SDG and metabolites compared: equipotent
[2]
  γ-H2AX positive cells: 22.1%±1.9
[3]
  Apoptotic cells: 9.9%±1.08
[4]
  Extent of apoptosis: significantly reduced
[5]; 10 μM hypochlorite, SDG pre-treatment 60 seconds
  Hypochlorite-induced decrease of 2-AP fluorescence, pre-treatment: prevented
[5]; SDG added +15 to +300 seconds after ClO^−
  Hypochlorite-induced 2-AP modification, post-treatment: significant recovery
[6]
  Oxidative DNA damage (8-oxo-dGuo): decreased DNA damage
[7]
  Intolerance / toxicity: neither intolerance nor toxicity
